According to PubChem BioAssay (NCI):
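Cells were grown in 96-well plates and exposed to each compound for 48 hours at five concentrations; endpoints were interpolated linearly between bracketing concentrations, or set to the highest concentration if not reached. TGI marks complete inhibition of growth.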

Experiments:
Test in all cases: NCI anticancer screen, dose series, 48 h
786-0 renal = tested on: 786-0 renal
A498 renal = tested on: A498 renal
A549 NSCLC = tested on: A549 NSCLC
ACHN renal = tested on: ACHN renal
CAKI-1 renal = tested on: CAKI-1 renal
CCRF-CEM leukemia = tested on: CCRF-CEM leukemia
COLO 205 colon = tested on: COLO 205 colon
DU-145 prostate = tested on: DU-145 prostate
EKVX NSCLC = tested on: EKVX NSCLC
HCC-2998 colon = tested on: HCC-2998 colon
HCT-116 colon = tested on: HCT-116 colon
HCT-15 colon = tested on: HCT-15 colon
HL-60(TB) leukemia = tested on: HL-60(TB) leukemia
HOP-62 NSCLC = tested on: HOP-62 NSCLC
HOP-92 NSCLC = tested on: HOP-92 NSCLC
HS 578T breast = tested on: HS 578T breast
HT29 colon = tested on: HT29 colon
IGROV1 ovarian = tested on: IGROV1 ovarian
K-562 leukemia = tested on: K-562 leukemia
KM12 colon = tested on: KM12 colon
LOX IMVI melanoma = tested on: LOX IMVI melanoma
M14 melanoma = tested on: M14 melanoma
MALME-3M melanoma = tested on: MALME-3M melanoma
MCF7 breast = tested on: MCF7 breast
MDA-MB-231 breast = tested on: MDA-MB-231 breast
MDA-MB-435 = tested on: MDA-MB-435
MDA-N = tested on: MDA-N
NCI-H226 lung = tested on: NCI-H226 lung
NCI-H23 lung = tested on: NCI-H23 lung
NCI-H460 lung = tested on: NCI-H460 lung
NCI-H522 lung = tested on: NCI-H522 lung
NCI/ADR-RES ovarian = tested on: NCI/ADR-RES ovarian
OVCAR-3 ovarian = tested on: OVCAR-3 ovarian
OVCAR-4 ovarian = tested on: OVCAR-4 ovarian
OVCAR-5 ovarian = tested on: OVCAR-5 ovarian
OVCAR-8 ovarian = tested on: OVCAR-8 ovarian
PC-3 prostate = tested on: PC-3 prostate
RXF 393 renal = tested on: RXF 393 renal
SF-268 CNS = tested on: SF-268 CNS
SF-295 CNS = tested on: SF-295 CNS
SF-539 CNS = tested on: SF-539 CNS
SK-MEL-2 melanoma = tested on: SK-MEL-2 melanoma
SK-MEL-28 melanoma = tested on: SK-MEL-28 melanoma
SK-MEL-5 melanoma = tested on: SK-MEL-5 melanoma
SK-OV-3 ovarian = tested on: SK-OV-3 ovarian
SN12C renal = tested on: SN12C renal
SNB-19 CNS = tested on: SNB-19 CNS
SNB-75 CNS = tested on: SNB-75 CNS
SW-620 colon = tested on: SW-620 colon
T-47D breast = tested on: T-47D breast
U251 CNS = tested on: U251 CNS
UACC-257 melanoma = tested on: UACC-257 melanoma
UACC-62 melanoma = tested on: UACC-62 melanoma
UO-31 renal = tested on: UO-31 renal
MOLT-4 leukemia = tested on: MOLT-4 leukemia
RPMI-8226 leukemia = tested on: RPMI-8226 leukemia
SR leukemia = tested on: SR leukemia
TK-10 renal = tested on: TK-10 renal

Cc1ccc(/C=C2\CN(C)CC3=C2NC(=S)NC3c2ccc(C)cc2)cc1 (centres undefined)
TGI (786-0 renal): 77.8 µM | TGI (A498 renal): > 100 µM | TGI (A549 NSCLC): > 100 µM | TGI (ACHN renal): > 100 µM | TGI (CAKI-1 renal): > 100 µM | TGI (CCRF-CEM leukemia): 82.4 µM | TGI (COLO 205 colon): 46 µM | TGI (DU-145 prostate): > 100 µM | TGI (EKVX NSCLC): > 100 µM | TGI (HCC-2998 colon): 78.9 µM | TGI (HCT-116 colon): 60.1 µM | TGI (HCT-15 colon): > 100 µM | TGI (HL-60(TB) leukemia): 61.4 µM | TGI (HOP-62 NSCLC): > 100 µM | TGI (HOP-92 NSCLC): 82.8 µM | TGI (HS 578T breast): > 100 µM | TGI (HT29 colon): 80.4 µM | TGI (IGROV1 ovarian): > 100 µM | TGI (K-562 leukemia): 56.9 µM | TGI (KM12 colon): 39 µM | TGI (LOX IMVI melanoma): > 100 µM | TGI (M14 melanoma): > 100 µM | TGI (MALME-3M melanoma): > 100 µM | TGI (MCF7 breast): 72.3 µM | TGI (MDA-MB-231 breast): > 100 µM | TGI (MDA-MB-435): 28.1 µM | TGI (MDA-N): 36.7 µM | TGI (NCI-H226 lung): > 100 µM | TGI (NCI-H23 lung): > 100 µM | TGI (NCI-H460 lung): > 100 µM | TGI (NCI-H522 lung): > 100 µM | TGI (NCI/ADR-RES ovarian): 68 µM | TGI (OVCAR-3 ovarian): 62.5 µM | TGI (OVCAR-4 ovarian): 67.1 µM | TGI (OVCAR-5 ovarian): > 100 µM | TGI (OVCAR-8 ovarian): > 100 µM | TGI (PC-3 prostate): > 100 µM | TGI (RXF 393 renal): > 100 µM | TGI (SF-268 CNS): > 100 µM | TGI (SF-295 CNS): > 100 µM | TGI (SF-539 CNS): > 100 µM | TGI (SK-MEL-2 melanoma): > 100 µM | TGI (SK-MEL-28 melanoma): > 100 µM | TGI (SK-MEL-5 melanoma): > 100 µM | TGI (SK-OV-3 ovarian): > 100 µM | TGI (SN12C renal): > 100 µM | TGI (SNB-19 CNS): > 100 µM | TGI (SNB-75 CNS): 68 µM | TGI (SW-620 colon): > 100 µM | TGI (T-47D breast): > 100 µM | TGI (U251 CNS): > 100 µM | TGI (UACC-257 melanoma): 62 µM | TGI (UACC-62 melanoma): > 100 µM | TGI (UO-31 renal): > 100 µM

CC(C)C(O)(C(=O)OCN1C(=O)C2C3C=CC(C2C1=O)C1C2C(=O)N(COC(=O)C(O)(C(C)C)C(C)O)C(=O)C2C31)C(C)O (centres undefined)
TGI (786-0 renal): > 100 µM | TGI (A498 renal): > 100 µM | TGI (A549 NSCLC): > 100 µM | TGI (ACHN renal): > 100 µM | TGI (CAKI-1 renal): > 100 µM | TGI (CCRF-CEM leukemia): > 100 µM | TGI (COLO 205 colon): > 100 µM | TGI (DU-145 prostate): > 100 µM | TGI (EKVX NSCLC): > 100 µM | TGI (HCC-2998 colon): > 100 µM | TGI (HCT-116 colon): > 100 µM | TGI (HCT-15 colon): > 100 µM | TGI (HL-60(TB) leukemia): > 100 µM | TGI (HOP-62 NSCLC): > 100 µM | TGI (HS 578T breast): > 100 µM | TGI (HT29 colon): > 100 µM | TGI (IGROV1 ovarian): > 100 µM | TGI (K-562 leukemia): > 100 µM | TGI (KM12 colon): > 100 µM | TGI (M14 melanoma): > 100 µM | TGI (MALME-3M melanoma): > 100 µM | TGI (MCF7 breast): > 100 µM | TGI (MDA-MB-231 breast): > 100 µM | TGI (MDA-MB-435): > 100 µM | TGI (MDA-N): > 100 µM | TGI (MOLT-4 leukemia): > 100 µM | TGI (NCI-H226 lung): > 100 µM | TGI (NCI-H23 lung): > 100 µM | TGI (NCI-H460 lung): > 100 µM | TGI (NCI-H522 lung): > 100 µM | TGI (NCI/ADR-RES ovarian): > 100 µM | TGI (OVCAR-3 ovarian): > 100 µM | TGI (OVCAR-4 ovarian): > 100 µM | TGI (OVCAR-5 ovarian): > 100 µM | TGI (OVCAR-8 ovarian): > 100 µM | TGI (PC-3 prostate): > 100 µM | TGI (RPMI-8226 leukemia): > 100 µM | TGI (RXF 393 renal): > 100 µM | TGI (SF-268 CNS): > 100 µM | TGI (SF-295 CNS): > 100 µM | TGI (SF-539 CNS): > 100 µM | TGI (SK-MEL-2 melanoma): > 100 µM | TGI (SK-MEL-28 melanoma): > 100 µM | TGI (SK-MEL-5 melanoma): > 100 µM | TGI (SK-OV-3 ovarian): > 100 µM | TGI (SN12C renal): > 100 µM | TGI (SNB-19 CNS): > 100 µM | TGI (SNB-75 CNS): > 100 µM | TGI (SR leukemia): > 100 µM | TGI (SW-620 colon): > 100 µM | TGI (T-47D breast): > 100 µM | TGI (TK-10 renal): > 100 µM | TGI (U251 CNS): > 100 µM | TGI (UACC-62 melanoma): > 100 µM | TGI (UO-31 renal): > 100 µM
